{
  "source": "PubChem BioAssay (NCI)",
  "note": "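1) Cells in 96-well plates. 2) Compound, 48 h, 5 concentrations. 3) Linear interpolation between surrounding doses. 4) Unreached endpoint = highest concentration. GI50 marks 50% less growth. The concentration for full growth arrest is given as TGI.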",
  "data": [
    {"system": "LOX IMVI melanoma", "experiment": "NCI tumour cell line growth inhibition, 48 h", "units": {"GI50": "µM", "TGI": "µM"}, "values": [
      {"smiles": "COc1ccc(C2=Nn3c(nnc3-n3nc(C)cc3C)SC2)cc1", "GI50": 0.0694, "TGI": "> 100"},
      {"smiles": "COc1ccc(Br)c(C(=O)N2CCc3ccccc32)c1N", "TGI": "> 100"},
      {"smiles": "COc1ccc(C)cc1NC(=S)C#N", "TGI": "> 100"},
      {"smiles": "Cc1ccc2ccc(-c3ccccc3)c3c2c1C(=O)c1ccccc1C3=O", "TGI": "> 100"},
      {"smiles": "OCC(O)C(O)C(O)c1nn(-c2ccc(F)cc2)c2nc3cc(Cl)c(Cl)cc3nc12", "note": "(stereo unspecified)", "TGI": 76.5},
      {"smiles": "CSC1=Nc2c(c(C)c(-c3ccccc3)n2COC(CO)CO)C2=NC(=O)CC(C)N12", "note": "(stereo unspecified)", "GI50": "> 100", "TGI": "> 100"},
      {"smiles": "COc1ccc(C2Cc3cc(OC)c(OC)c(OC)c3C2)cc1", "note": "(stereo unspecified)", "TGI": "> 100"}
    ]},
    {"system": "MCF7 breast", "experiment": "NCI tumour cell line growth inhibition, 48 h", "units": {"GI50": "µM", "TGI": "µM"}, "values": [
      {"smiles": "CN(C)c1ccc(C(O)C2=CC(=O)c3ccccc3C2=O)cc1", "note": "(stereo unspecified)", "GI50": 4.7, "TGI": "> 100"},
      {"smiles": "Clc1ccc(CN2CCCN(Cc3ccc(Cl)cc3)C2c2cc3ccccc3c3ccccc23)cc1", "TGI": "> 100"},
      {"smiles": "COc1ccc(C2NC(=S)NC3=C2CCOc2c3ccc3ccccc23)cc1", "note": "(stereo unspecified)", "GI50": 5.32, "TGI": "> 100"},
      {"smiles": "COc1cc(N(C)C)c(OC)cc1C=C1C=CC=C1", "TGI": "> 100"},
      {"smiles": "C=C1CC[C@H]2C(C)=CC[C@H]3C(=C)C(=O)O[C@@H]3[C@@H]12", "TGI": "> 100"},
      {"smiles": "O=C(O)c1ccccc1NCn1c(=S)sc2ccccc21", "TGI": 51.7},
      {"smiles": "COc1cc2c(c(OC)c1OC)C(=O)NCCC2", "TGI": "> 100"},
      {"smiles": "Cc1cc(NN=C(c2ccc(O)cc2)c2ccc(O)cc2)c([N+](=O)[O-])cc1[N+](=O)[O-]", "GI50": 2.93, "TGI": 20.4},
      {"smiles": "COc1ccc(-c2c(N)noc2-c2cc(OC)c3c(c2)OCCO3)cc1", "GI50": "< 0.01", "TGI": "> 100"},
      {"smiles": "COc1ccc(-c2cc(/C=C/C(=O)c3ccc(N)cc3)[nH]n2)cc1", "GI50": 0.708, "TGI": 3.84},
      {"smiles": "CCOC(=O)c1c(NC(=O)c2ccc(Cl)cc2)sc2c(CN(C)C)c(O)ccc12", "GI50": 7.57, "TGI": "> 100"},
      {"smiles": "OCC(O)C(O)C(O)C(O)c1nnc2c(-c3ccccc3)nc3ccccc3n12", "note": "(stereo unspecified)", "GI50": 43.5, "TGI": "> 100"},
      {"smiles": "N#Cc1cc(S(=O)(=O)Nc2nc3cc(Cl)ccc3o2)c(SCc2ccccc2)cc1Cl", "GI50": 17.3, "TGI": 33.3},
      {"smiles": "Cc1ccc(OC(=O)N2C/C(=C\\c3ccccc3)C(=O)/C(=C/c3ccccc3)C2)cc1", "TGI": 56},
      {"smiles": "O=c1cccc(Cl)[nH]1", "TGI": "> 100"},
      {"smiles": "OCCN(CO)CO", "TGI": "> 100"},
      {"smiles": "COc1ccc(C2=Nn3c(nnc3-n3nc(C)cc3C)SC2)cc1", "GI50": 0.0642, "TGI": "> 100"},
      {"smiles": "COc1ccc(C)cc1NC(=S)C#N", "TGI": "> 100"},
      {"smiles": "CSC1=Nc2c(c(C)c(-c3ccccc3)n2COC(CO)CO)C2=NC(=O)CC(C)N12", "note": "(stereo unspecified)", "GI50": "> 100", "TGI": "> 100"}
    ]},
    {"system": "MDA-MB-435", "experiment": "NCI tumour cell line growth inhibition, 48 h", "units": {"GI50": "µM", "TGI": "µM"}, "values": [
      {"smiles": "CN(C)c1ccc(C(O)C2=CC(=O)c3ccccc3C2=O)cc1", "note": "(stereo unspecified)", "GI50": 5.94, "TGI": 28},
      {"smiles": "Clc1ccc(CN2CCCN(Cc3ccc(Cl)cc3)C2c2cc3ccccc3c3ccccc23)cc1", "TGI": "> 100"},
      {"smiles": "COc1ccc(C2NC(=S)NC3=C2CCOc2c3ccc3ccccc23)cc1", "note": "(stereo unspecified)", "GI50": 36.4, "TGI": "> 100"},
      {"smiles": "COc1cc(N(C)C)c(OC)cc1C=C1C=CC=C1", "TGI": "> 100"},
      {"smiles": "C=C1CC[C@H]2C(C)=CC[C@H]3C(=C)C(=O)O[C@@H]3[C@@H]12", "TGI": "> 100"},
      {"smiles": "O=[N+]([O-])/C=C/c1ccc(Cl)cc1[N+](=O)[O-]", "GI50": 3.62, "TGI": 16.1},
      {"smiles": "O=C(O)c1ccccc1NCn1c(=S)sc2ccccc21", "TGI": "> 100"},
      {"smiles": "Cc1cc(NN=C(c2ccc(O)cc2)c2ccc(O)cc2)c([N+](=O)[O-])cc1[N+](=O)[O-]", "GI50": 3.46, "TGI": 14.4},
      {"smiles": "COc1ccc(-c2c(N)noc2-c2cc(OC)c3c(c2)OCCO3)cc1", "GI50": "< 0.01", "TGI": 0.0102},
      {"smiles": "Nc1ccccc1C#Cc1ccccc1C#Cc1cccs1", "GI50": 4.03, "TGI": 14.3},
      {"smiles": "COc1ccc(-c2cc(/C=C/C(=O)c3ccc(N)cc3)[nH]n2)cc1", "GI50": 2.24, "TGI": 7},
      {"smiles": "CCOC(=O)c1c(NC(=O)c2ccc(Cl)cc2)sc2c(CN(C)C)c(O)ccc12", "GI50": 6.62, "TGI": 29.9},
      {"smiles": "OCC(O)C(O)C(O)C(O)c1nnc2c(-c3ccccc3)nc3ccccc3n12", "note": "(stereo unspecified)", "GI50": "> 100", "TGI": "> 100"},
      {"smiles": "N#Cc1cc(S(=O)(=O)Nc2nc3cc(Cl)ccc3o2)c(SCc2ccccc2)cc1Cl", "GI50": 16.2, "TGI": 29.7},
      {"smiles": "O=c1cccc(Cl)[nH]1", "TGI": "> 100"},
      {"smiles": "OCCN(CO)CO", "TGI": "> 100"},
      {"smiles": "COc1ccc(C)cc1NC(=S)C#N", "TGI": "> 100"},
      {"smiles": "CSC1=Nc2c(c(C)c(-c3ccccc3)n2COC(CO)CO)C2=NC(=O)CC(C)N12", "note": "(stereo unspecified)", "GI50": "> 100", "TGI": "> 100"}
    ]},
    {"system": "MOLT-4 leukemia", "experiment": "NCI tumour cell line growth inhibition, 48 h", "units": {"TGI": "µM", "GI50": "µM"}, "values": [
      {"smiles": "CC1(C)OC(=O)C(=C2CCC(C(=O)Nc3cccc(C(F)(F)F)c3)N2)C(=O)O1", "note": "(stereo unspecified)", "TGI": "> 100"},
      {"smiles": "CN(C)CCN1CCc2c([nH]c3ccccc23)C1c1cccnc1", "note": "(stereo unspecified)", "TGI": "> 100"},
      {"smiles": "Clc1ccc(CN2CCCN(Cc3ccc(Cl)cc3)C2c2cc3ccccc3c3ccccc23)cc1", "TGI": "> 100"},
      {"smiles": "CCN(c1ccccc1)[C@H]1C(=O)N(c2ccc([N+](=O)[O-])cc2)[C@H]1c1ccc(OC)cc1", "TGI": "> 100"},
      {"smiles": "COc1ccc(/C=C\\c2cc(OC)c(OC)c(OC)c2)cc1", "TGI": 3.09},
      {"smiles": "COc1ccc(C2NC(=S)NC3=C2CCOc2c3ccc3ccccc23)cc1", "note": "(stereo unspecified)", "GI50": 87.1, "TGI": "> 100"},
      {"smiles": "COc1cc(N(C)C)c(OC)cc1C=C1C=CC=C1", "TGI": "> 100"},
      {"smiles": "C[C@H]1CC[P+](C)(c2ccccc2)C1", "note": "(stereo partly specified)", "TGI": "> 100"},
      {"smiles": "C=C1CC[C@H]2C(C)=CC[C@H]3C(=C)C(=O)O[C@@H]3[C@@H]12", "TGI": "> 100"},
      {"smiles": "COc1cc(OC)c2c(=O)c3cccc([N+](=O)[O-])c3n(C)c2c1", "TGI": "> 100"},
      {"smiles": "COc1cccc(/C=N\\NC(=O)C(C)SC(C)C(=O)N/N=C/c2cccc(OC)c2)c1", "note": "(stereo unspecified)", "TGI": "> 100"},
      {"smiles": "O=[N+]([O-])/C=C/c1ccc(Cl)cc1[N+](=O)[O-]", "GI50": 3.09, "TGI": 12.6},
      {"smiles": "O=C(O)c1ccccc1NCn1c(=S)sc2ccccc21", "TGI": "> 100"},
      {"smiles": "Cc1cc(C)nc(NS(=O)(=O)c2ccc(Nc3c4ccccc4nc4c(C(=O)NCCN(C)C)cccc34)cc2)n1", "TGI": 1.61},
      {"smiles": "COc1cc2c(c(OC)c1OC)C(=O)NCCC2", "TGI": "> 100"},
      {"smiles": "Cc1cc(NN=C(c2ccc(O)cc2)c2ccc(O)cc2)c([N+](=O)[O-])cc1[N+](=O)[O-]", "GI50": 1.84, "TGI": 14.6},
      {"smiles": "COc1ccc(-c2c(N)noc2-c2cc(OC)c3c(c2)OCCO3)cc1", "GI50": 0.0353, "TGI": 5.31},
      {"smiles": "Nc1ccccc1C#Cc1ccccc1C#Cc1cccs1", "GI50": 32.4, "TGI": "> 100"},
      {"smiles": "COc1ccc(-c2cc(/C=C/C(=O)c3ccc(N)cc3)[nH]n2)cc1", "GI50": 2.32, "TGI": 9.48},
      {"smiles": "O=C1CCC(=O)N1Sc1ccccc1", "TGI": "> 100"},
      {"smiles": "CCOC(=O)c1c(NC(=O)c2ccc(Cl)cc2)sc2c(CN(C)C)c(O)ccc12", "GI50": 4.11, "TGI": "> 100"},
      {"smiles": "O=C(/C=C/c1ccccc1O)c1ccccc1Cl", "TGI": 84.1},
      {"smiles": "CCCCC1(C(NC(=O)c2ccccc2Cl)c2ccncc2)C(=O)N(c2ccccc2)N(c2ccccc2)C1=O", "note": "(stereo unspecified)", "TGI": 50.3},
      {"smiles": "N#Cc1cc(S(=O)(=O)Nc2nc3cc(Cl)ccc3o2)c(SCc2ccccc2)cc1Cl", "GI50": 18.6, "TGI": 39},
      {"smiles": "COc1ccc(/C=N/NS(=O)(=O)c2ccccc2)cc1", "TGI": "> 100"},
      {"smiles": "C1=CC2CCC1CN2CCC1CNc2ccccc21", "note": "(stereo unspecified)", "TGI": "> 100"},
      {"smiles": "Cc1ccc(OC(=O)N2C/C(=C\\c3ccccc3)C(=O)/C(=C/c3ccccc3)C2)cc1", "TGI": 18.5},
      {"smiles": "O=C1C(=O)C2(CC1S(=O)(=O)c1ccccc1)c1ccccc1-c1ccccc12", "note": "(stereo unspecified)", "TGI": 50.5},
      {"smiles": "O=c1oc2c3ccc4ccccc4c3n(CCN3CCCCC3)c2c2ccccc12", "TGI": "> 100"},
      {"smiles": "O=c1cccc(Cl)[nH]1", "TGI": "> 100"},
      {"smiles": "Cc1ccc(S(=O)C(C)C(Cl)c2ccccc2)cc1", "note": "(stereo unspecified)", "TGI": "> 100"}
    ]}
  ]
}
